Source: patent US8466144B2, “Muscarinic antagonists with parp and sir modulating activity as cytoprotective agents” (Proteosys AG, priority 2004, dated 2013)

What was measured:
[1] = system: neurons from D3 embryonic stem (ES) cells; assay: Cell culture model for chemical ischemia and neuroprotection (calcium imaging of surviving neurons); type: cell-based, mice; details: β-methyl-cyclodextrin or filipin
Method: For all experiments, D3 embryonic stem (ES) cells derived from 129/sv mice [Okabe et al., 1996] were cultivated for 12 days, with passages on days 2, 4, 7 and 9 as described previously [Sommer et al., 2004]. Insult conditions: Cells (24-well plates) were pre-incubated with or without 20 nM EPO in fresh medium for 24 hours at 37° C. Cells were rinsed once with low K^+ solution (140 mM NaCl, 4.7 mM KCl, 1.2 mM KH2PO4, 2.5 mM CaCl2, 1.2 mM MgSO4, 11 mM glucose, 15 mM Hepes-NaOH, pH 7.35). Cells (either with or without EPO pre-incubation) were incubated for up to 45 min (37° C.) with either low K^+ solution or with glucose-free low K^+ solution supplemented with 1 mM KCN (chemical ischemia solution [Kume et al., 2002]). Vitality control to asses numbers of surviving neurons was performed by a brief stimulation with a low dose of glutamate (10 μM).
Functional tests by calcium imaging were performed essentially as described [Sommer et al., 2004]. Briefly, cells were loaded with 2 μM of fura-2 AM in DMEM for 45 min at 37° C. in the dark. Measurements of relative changes in [Ca^2+] were made on an inverted epifluorescence microscope (Olympus IX70 S1F2) with a Polychrom IV Monochromator (Xe-lamp, USHIO). Excitation wavelengths (λ1, λ2) and the emission wavelength were 340, 380 and 510 nm, respectively. […]

[2] = target: T1, recombinant monomeric PARP-1 (Homo sapiens, UniProt P09874); assay: PARP inhibition assay (R&D Systems); type: biochemical; details: FIG. 4b
T1 construct: purchased R&D Systems TA4669
Source text: A PARP inhibition assay from R&D Systems was used (Cat.No. TA4669) according to instructions of the supplier.
Under cellular conditions PARP-1 poly-ADP-ribosylates a host of nuclear proteins, including topoisomerase 1, 14-3-3 g and PARP-1 itself. Thus under cellular conditions, the self-modification of PARP-1 and dimerization are regulating its activity, moreover there is a tight interplay with PARG (poly-ADP- ribosyl-glycohydroxylase).

3T3 fibroblasts = assay: LPS challenge, cell survival by Trypan Blue; type: cell-based; details: LPS 100 ng/ml for 60 min
Method: (§1) Cell pellets were further investigated by Western blot staining with anti Cox-2 and anti iNOS antibodies of 1D polyacrylamide gels.
(§2) Cell survival was assessed by Trypan Blue staining.

A 549 cells = assay: LPS challenge, cell survival by Trypan Blue; type: cell-based; details: LPS 100 ng/ml for 60 min
Method: as §1, §2

[3] = system: neurally differentiated V56 embryonic stem cells; assay: LPS challenge, cell survival by Trypan Blue; type: cell-based; details: LPS 100 ng/ml for 60 min
Method: as §1, §2

[4] = system: undifferentiated V56 embryonic stem cells; assay: LPS challenge, cell survival by Trypan Blue; type: cell-based; details: LPS 100 ng/ml for 60 min
Method: as §1, §2

PARP-1 = assay: Affinity tag enrichment from cell extracts (1D PAGE, MALDI-TOF, immunostaining); type: binding
Method: (§3) A reactive —SCN group is introduced which binds to lysines in or near the binding site of the compound. A biotinylated linker serves for enrichment of bound protein. The synthesis is described in FIG. 1.
(§4) The affinity reagent 11 was used to bind the target covalently from fractionations of crude cell extracts of D3 ES cells and other cell lines, subsequently the affinity purified material was analysed by 1D PAGE, immunostaining, and mass spectrometry.
(§5) The subsequent fractionation, isolation and further analysis was performed according to published standard procedures (Sommer et al. 2004). A commercial anti-PARP antibody was used for staining Western blots. Mass spectrometry for independent identification of pirenzepine-tagged proteins was performed as described elsewhere recently (Vogt et al., 2003, Cahill et al., 2003).
(§6) A reactive —SCN group binds to lysins in or near the binding site of the compound. A biotinylated linker serves for enrichment of bound protein. The final affinity reagent, thiocyanato-11-[2-(4-biocytinyl-piperazin-1-yl)-acetyl]-5,11-dihydro-benzo[e]pyrido [3,2-b] [1,4] diazepin-6-one (compound (11), FIG. 1), was used to bind the target covalently from fractionations of crude cell extracts of D3 embryonic stem cells, subsequently the affinity purified material was analysed by 1D PAGE (FIG. 3a), mass spectrometry and immunostaining. […]

SIR-2 = target: T2, SIR-2 (Mus musculus, UniProt Q923E4); assay: as above; type: binding
T2 construct: endogenous in cells; host or cells: D3 embryonic stem cells / V56 embryonic stem cells (crude extract)
T2 sequence (Q923E4 1-737): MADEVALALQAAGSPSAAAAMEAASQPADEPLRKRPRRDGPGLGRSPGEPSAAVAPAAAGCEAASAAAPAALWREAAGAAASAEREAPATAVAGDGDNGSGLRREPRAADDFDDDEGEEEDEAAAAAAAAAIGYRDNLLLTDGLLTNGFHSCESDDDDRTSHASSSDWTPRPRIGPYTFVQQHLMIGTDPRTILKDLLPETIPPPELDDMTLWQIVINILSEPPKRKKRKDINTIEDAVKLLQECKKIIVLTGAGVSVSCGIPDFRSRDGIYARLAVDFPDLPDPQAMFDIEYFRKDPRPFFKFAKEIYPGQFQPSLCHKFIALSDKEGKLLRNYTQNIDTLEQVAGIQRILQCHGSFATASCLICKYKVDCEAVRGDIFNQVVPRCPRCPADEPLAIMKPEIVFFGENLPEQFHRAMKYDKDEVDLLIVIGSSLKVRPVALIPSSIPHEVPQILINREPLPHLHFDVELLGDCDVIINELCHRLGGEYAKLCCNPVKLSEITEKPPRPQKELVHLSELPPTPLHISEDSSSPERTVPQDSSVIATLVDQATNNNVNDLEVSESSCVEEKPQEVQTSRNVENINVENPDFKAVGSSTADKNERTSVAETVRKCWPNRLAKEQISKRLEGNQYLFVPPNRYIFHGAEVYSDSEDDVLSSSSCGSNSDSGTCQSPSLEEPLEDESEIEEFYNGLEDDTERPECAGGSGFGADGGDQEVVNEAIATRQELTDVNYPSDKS
Method: as §3, §4, §5, §6

T1 sequence (P09874 whole entry): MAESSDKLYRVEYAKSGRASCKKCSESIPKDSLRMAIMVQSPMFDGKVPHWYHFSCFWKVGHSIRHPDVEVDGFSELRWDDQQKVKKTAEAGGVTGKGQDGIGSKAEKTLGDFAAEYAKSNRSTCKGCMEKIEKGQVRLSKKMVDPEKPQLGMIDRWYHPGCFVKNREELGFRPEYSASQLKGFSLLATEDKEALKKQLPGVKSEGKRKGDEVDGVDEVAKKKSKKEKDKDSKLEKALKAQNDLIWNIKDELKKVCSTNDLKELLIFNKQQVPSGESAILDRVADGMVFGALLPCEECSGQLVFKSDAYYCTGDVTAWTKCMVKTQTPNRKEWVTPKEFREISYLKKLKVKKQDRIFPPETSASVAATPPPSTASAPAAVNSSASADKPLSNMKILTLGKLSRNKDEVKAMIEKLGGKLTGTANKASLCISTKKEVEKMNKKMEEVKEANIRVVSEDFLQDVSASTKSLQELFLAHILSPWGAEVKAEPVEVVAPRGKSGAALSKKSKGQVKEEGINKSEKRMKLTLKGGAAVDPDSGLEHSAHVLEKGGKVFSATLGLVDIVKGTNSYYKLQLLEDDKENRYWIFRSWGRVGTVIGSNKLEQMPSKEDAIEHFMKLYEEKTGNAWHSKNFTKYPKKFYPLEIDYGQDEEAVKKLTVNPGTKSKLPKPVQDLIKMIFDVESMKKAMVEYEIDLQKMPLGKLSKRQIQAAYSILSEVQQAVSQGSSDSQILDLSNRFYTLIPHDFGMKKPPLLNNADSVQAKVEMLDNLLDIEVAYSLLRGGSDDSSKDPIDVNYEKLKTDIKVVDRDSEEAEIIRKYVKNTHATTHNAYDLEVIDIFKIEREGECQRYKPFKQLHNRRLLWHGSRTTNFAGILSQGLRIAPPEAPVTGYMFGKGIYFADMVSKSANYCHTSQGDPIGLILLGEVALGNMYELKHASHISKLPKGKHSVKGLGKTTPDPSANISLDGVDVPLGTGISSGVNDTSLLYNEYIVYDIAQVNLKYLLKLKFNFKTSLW
Chain of PARP-1 (P11103 215-1013 limits assumed): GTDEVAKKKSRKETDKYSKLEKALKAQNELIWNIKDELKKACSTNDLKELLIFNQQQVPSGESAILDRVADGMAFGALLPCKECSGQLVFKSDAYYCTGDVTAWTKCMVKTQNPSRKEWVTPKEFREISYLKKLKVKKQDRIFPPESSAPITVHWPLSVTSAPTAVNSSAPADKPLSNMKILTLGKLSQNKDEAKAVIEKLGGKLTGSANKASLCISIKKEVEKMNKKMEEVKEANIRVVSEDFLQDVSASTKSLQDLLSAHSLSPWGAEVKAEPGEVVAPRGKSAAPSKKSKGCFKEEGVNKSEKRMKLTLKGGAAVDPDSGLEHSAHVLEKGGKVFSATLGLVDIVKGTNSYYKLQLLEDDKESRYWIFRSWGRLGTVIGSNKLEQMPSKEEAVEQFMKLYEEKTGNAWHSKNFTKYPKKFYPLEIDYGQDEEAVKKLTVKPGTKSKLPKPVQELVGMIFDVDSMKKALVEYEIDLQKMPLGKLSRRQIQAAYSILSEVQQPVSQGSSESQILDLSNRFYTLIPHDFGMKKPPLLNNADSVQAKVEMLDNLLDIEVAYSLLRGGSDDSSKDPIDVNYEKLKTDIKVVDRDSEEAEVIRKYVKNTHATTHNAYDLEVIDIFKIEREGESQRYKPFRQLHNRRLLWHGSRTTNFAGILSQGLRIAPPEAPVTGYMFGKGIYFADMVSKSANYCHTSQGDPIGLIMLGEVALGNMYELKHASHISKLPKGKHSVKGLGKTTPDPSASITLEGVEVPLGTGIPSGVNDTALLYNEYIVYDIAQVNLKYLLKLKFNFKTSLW

| Molecule | neuroprotective effect in the presence of raft-disrupting conditions [1] | PARP-1 inhibition (in words) [2] | protection from LPS challenge (3T3 fibroblasts) | protection from LPS challenge (A 549 cells) | protection from LPS challenge [3] | protection from LPS challenge [4] | interaction with PARP-1 (PARP-1) | interaction with SIR-2 (SIR-2) |
| --- | --- | --- | --- | --- | --- | --- | --- | --- |
| CN1CCN(CC(=O)N2c3ccccc3C(=O)Nc3cccnc32)CC1 [Pirenzepine] | does not occur | rather weak PARP-1 inhibitor | protect from LPS challenge | protect from LPS challenge | protect from LPS challenge | protect from LPS challenge | – | – |
| thiocyanato 11-[2-(4-biocytinyl-piperazin-1-yl)-acetyl]-5,11-dihydro-benzo[e]pyrido[3,2-b][1,4]diazepin-6-one [affinity tag] | – | – | – | – | – | – | interacts with both proteins | interacts with both proteins |
